According to paper PMC11007702 (ACS Omega, 2024):

Columns and labels:
Type in all cases: biochemical
EGFR^T790M = EGFR^T790M (Homo sapiens, UniProt P00533, T790M); test: in vitro EGFR kinase inhibition assay
EGFR^WT = EGFR^WT (Homo sapiens, UniProt P00533); test: in vitro EGFR kinase inhibition assay
VEGFR-2 = VEGFR-2 (Homo sapiens, UniProt P35968); test: in vitro kinase inhibition
VEGFR-2, sequence (P35968 20-1356): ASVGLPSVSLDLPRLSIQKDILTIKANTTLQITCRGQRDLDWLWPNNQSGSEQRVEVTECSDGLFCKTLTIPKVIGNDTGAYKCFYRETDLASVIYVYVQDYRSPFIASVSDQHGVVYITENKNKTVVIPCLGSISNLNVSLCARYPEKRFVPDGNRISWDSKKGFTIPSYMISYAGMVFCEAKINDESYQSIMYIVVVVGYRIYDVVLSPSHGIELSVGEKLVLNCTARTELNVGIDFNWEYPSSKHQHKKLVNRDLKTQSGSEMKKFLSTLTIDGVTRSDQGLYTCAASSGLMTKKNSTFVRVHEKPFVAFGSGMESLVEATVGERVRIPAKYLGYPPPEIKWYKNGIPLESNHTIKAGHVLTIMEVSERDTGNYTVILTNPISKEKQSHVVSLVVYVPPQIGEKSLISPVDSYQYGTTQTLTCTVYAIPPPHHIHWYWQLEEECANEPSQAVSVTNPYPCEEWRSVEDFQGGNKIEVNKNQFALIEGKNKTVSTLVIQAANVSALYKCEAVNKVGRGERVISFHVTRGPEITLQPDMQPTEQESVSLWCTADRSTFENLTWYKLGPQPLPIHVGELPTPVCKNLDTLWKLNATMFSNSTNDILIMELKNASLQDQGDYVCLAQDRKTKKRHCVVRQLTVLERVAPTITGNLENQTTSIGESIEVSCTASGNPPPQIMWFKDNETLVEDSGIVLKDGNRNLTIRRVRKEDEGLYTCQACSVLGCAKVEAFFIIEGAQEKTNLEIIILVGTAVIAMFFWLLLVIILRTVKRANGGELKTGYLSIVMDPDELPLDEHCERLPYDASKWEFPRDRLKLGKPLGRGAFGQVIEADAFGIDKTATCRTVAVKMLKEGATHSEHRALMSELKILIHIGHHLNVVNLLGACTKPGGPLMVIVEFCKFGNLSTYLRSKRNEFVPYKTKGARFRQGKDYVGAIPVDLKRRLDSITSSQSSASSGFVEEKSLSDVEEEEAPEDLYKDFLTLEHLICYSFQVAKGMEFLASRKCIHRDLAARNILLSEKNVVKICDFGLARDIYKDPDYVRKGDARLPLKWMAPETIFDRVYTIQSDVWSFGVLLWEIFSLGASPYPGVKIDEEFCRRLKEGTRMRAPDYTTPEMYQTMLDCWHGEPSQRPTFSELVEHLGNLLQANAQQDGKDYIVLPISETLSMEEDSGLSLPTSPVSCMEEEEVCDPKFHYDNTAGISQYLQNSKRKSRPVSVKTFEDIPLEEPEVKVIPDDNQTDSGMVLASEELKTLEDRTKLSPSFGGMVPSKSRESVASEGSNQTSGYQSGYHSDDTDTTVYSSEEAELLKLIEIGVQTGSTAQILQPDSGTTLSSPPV

EGFR^T790M, sequence (P00533 669-1210 T790M limits assumed): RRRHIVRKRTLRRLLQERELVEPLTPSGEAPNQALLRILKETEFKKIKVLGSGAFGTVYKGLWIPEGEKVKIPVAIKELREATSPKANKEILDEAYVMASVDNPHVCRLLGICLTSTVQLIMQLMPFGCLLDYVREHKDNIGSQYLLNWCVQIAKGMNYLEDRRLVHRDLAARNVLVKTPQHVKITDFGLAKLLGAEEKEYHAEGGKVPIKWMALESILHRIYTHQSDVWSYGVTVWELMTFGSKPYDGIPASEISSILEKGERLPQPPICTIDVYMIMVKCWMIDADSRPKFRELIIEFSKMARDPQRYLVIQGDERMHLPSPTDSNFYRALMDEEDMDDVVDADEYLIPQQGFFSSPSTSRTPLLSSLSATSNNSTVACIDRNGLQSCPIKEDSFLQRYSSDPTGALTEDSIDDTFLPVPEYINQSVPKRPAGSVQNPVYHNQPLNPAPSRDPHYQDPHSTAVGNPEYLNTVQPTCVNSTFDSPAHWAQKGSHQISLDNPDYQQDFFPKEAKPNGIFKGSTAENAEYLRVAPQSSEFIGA
EGFR^WT, sequence (P00533 25-1210): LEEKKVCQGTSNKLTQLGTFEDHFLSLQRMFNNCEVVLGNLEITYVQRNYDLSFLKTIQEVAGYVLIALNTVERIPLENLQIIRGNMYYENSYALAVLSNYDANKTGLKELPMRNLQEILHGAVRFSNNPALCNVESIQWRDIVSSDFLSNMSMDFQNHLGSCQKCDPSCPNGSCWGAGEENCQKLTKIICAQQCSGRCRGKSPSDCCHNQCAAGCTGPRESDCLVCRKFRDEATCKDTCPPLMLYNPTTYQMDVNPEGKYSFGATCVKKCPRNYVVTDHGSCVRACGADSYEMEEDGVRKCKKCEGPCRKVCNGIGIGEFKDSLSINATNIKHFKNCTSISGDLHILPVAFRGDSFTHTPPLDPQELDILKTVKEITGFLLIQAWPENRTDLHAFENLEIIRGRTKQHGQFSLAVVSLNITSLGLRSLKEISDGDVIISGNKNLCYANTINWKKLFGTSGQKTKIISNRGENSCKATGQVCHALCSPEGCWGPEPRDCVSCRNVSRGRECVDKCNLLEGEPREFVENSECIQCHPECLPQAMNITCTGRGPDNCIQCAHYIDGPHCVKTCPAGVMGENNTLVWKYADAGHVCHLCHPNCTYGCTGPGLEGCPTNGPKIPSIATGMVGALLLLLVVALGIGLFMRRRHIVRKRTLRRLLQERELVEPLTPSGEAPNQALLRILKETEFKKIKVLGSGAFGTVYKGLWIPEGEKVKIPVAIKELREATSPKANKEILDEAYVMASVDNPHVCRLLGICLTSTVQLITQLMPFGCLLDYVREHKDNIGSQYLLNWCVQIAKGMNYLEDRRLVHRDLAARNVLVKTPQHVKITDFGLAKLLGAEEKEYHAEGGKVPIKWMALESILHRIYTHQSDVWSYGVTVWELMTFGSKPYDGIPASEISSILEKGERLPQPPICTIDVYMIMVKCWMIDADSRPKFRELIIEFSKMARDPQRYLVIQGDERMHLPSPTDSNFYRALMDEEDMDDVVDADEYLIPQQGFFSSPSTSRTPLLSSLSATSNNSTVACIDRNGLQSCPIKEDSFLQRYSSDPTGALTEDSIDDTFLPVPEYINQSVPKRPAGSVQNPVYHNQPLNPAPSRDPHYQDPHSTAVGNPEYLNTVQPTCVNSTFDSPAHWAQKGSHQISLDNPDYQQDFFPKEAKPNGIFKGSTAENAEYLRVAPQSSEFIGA

## Cc1ccc(NC(=O)Cn2c(=O)c3c(ncn3C)n(C)c2=O)cc1 [T-1-PMPA, 2-(3,7-Dimethyl-2,6-dioxo-2,3,6,7-tetrahydro-1H-purin-1-yl)-N-(p-tolyl)acetamide]
EGFR^T790M
  IC50: 0.562 µM
EGFR^WT
  IC50: 0.086 µM
VEGFR-2
  IC50: 2.07 µM
